Our source for the IC50 and CC50 values is ChEMBL document CHEMBL3853342, “Design, synthesis and biological evaluation of novel benzo-α-pyrone containing piperazine derivatives as potential BRAFV600E inhibitors” (Bioorg Med Chem Lett, 2016).

Data set [1] can be described thus: Antiproliferative activity against human WM1361 cells assessed as cell growth inhibition after 24 hrs by MTT assay. Conditions: WM1361, 24 h. Type of data set: functional, cell-based. Background: Tetrazolium dyes change colour on reduction, which living cells bring about.
Data set [2] in a line: Cytotoxicity against human 293T cells assessed as cell growth inhibition after 24 hrs by MTT assay. The data set is classed as toxicity, cell-based, HEK-293T.
Data set [3] can be described thus: Antiproliferative activity against human WM266.4 cells harboring BRAF V600E mutant assessed as cell growth inhibition after 24 hrs by MTT assay. The settings on record: WM 266-4, 24 h. The data set is classed as functional, cell-based.
Data set [4] concerns the target Serine/threonine-protein kinase B-raf (Homo sapiens, UniProt P15056, V600E). Nature of the data set: Inhibition of human recombinant GST-tagged BRAF catalytic domain (416 to 766 residues) V600E mutant expressed in baculovirus expression system preincubated for 1 hr followed by human full length recombinant N-terminal His-tagged MEK1 substrate addition measured after 25 mins by gel electrophoresis method.

The nature of data set [5]: Antiproliferative activity against human A375 cells assessed as cell growth inhibition after 24 hrs by MTT assay. Type of data set: functional, cell-based. The settings on record: A-375, 24 h.

Structures are written as SMILES.

Sequence of Serine/threonine-protein kinase B-raf (P15056 2-766 V600E limits assumed): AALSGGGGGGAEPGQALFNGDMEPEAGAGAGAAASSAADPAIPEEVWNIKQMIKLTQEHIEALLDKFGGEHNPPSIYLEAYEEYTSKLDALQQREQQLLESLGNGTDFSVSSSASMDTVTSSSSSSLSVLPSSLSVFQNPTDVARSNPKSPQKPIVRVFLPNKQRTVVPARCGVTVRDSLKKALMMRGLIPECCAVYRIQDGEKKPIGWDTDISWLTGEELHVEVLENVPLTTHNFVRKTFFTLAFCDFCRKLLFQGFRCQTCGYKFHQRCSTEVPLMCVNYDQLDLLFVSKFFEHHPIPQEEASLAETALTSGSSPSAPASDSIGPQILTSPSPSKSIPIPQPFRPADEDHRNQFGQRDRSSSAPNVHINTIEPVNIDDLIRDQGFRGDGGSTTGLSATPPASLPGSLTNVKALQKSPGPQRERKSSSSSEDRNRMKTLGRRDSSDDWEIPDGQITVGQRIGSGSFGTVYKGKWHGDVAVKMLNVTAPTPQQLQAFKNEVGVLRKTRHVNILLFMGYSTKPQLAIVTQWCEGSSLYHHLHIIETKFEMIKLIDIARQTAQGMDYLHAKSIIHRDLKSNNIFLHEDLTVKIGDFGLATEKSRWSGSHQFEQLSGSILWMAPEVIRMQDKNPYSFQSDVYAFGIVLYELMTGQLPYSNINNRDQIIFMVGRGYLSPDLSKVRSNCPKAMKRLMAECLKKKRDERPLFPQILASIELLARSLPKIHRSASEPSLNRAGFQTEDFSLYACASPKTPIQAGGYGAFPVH

For the compound `CCN1CCN(c2c(CO)c(=O)oc3ccccc23)CC1`, the IC50 in data set [1] was over 100 µM; in data set [3] it was over 50 µM; in data set [4], over 50 µM; in data set [5], over 50 µM. Further, the CC50 at 24 h in data set [2] was over 50 µM.

Take `O=c1oc2ccccc2c(N2CCN(C(c3ccc(F)cc3)c3ccc(F)cc3)CC2)c1CO`: the IC50 turned out to be 29.4 µM in data set [1], 2.57 µM in data set [3], 0.68 µM in data set [4] and 3.16 µM in data set [5]. Further, the cytotoxic concentration (CC50) at 24 h in data set [2] is over 50 µM.

Regarding `O=c1oc2ccccc2c(N2CCN(c3cccc(Cl)c3)CC2)c1CO`, the IC50 in data set [1] is over 50 µM; in data set [3], 46.3 µM; in data set [4] it was 33.5 µM; in data set [5] it was 40.5 µM. Besides, the CC50 at 24 h in data set [2] was over 50 µM.

Regarding `O=c1oc2ccccc2c(N2CCN(c3ccccc3F)CC2)c1CO`, the IC50 is over 50 µM in data set [1], 37.6 µM in data set [3], 22 µM in data set [4] and 32.1 µM in data set [5]. Also, the CC50 at 24 h in data set [2] was over 50 µM.

With `O=c1oc2ccccc2c(N2CCN(c3cccc(C(F)(F)F)c3)CC2)c1CO`, the concentration for half-maximal inhibition (IC50) is over 50 µM in data set [1], 30 µM in data set [3], 24.2 µM in data set [4] and 31.9 µM in data set [5]. For the same compound, the CC50 at 24 h in data set [2] is over 50 µM.

In the case of `COc1ccc(N2CCN(c3c(CO)c(=O)oc4ccccc34)CC2)cc1`, the 50% inhibitory concentration (IC50) in data set [1] came to 40.4 µM; in data set [3], 5.61 µM; in data set [4], 1.84 µM; in data set [5], 7.23 µM. Besides, the CC50 at 24 h in data set [2] was over 50 µM.

On to `COc1cccc(N2CCN(c3c(CO)c(=O)oc4ccccc34)CC2)c1`, for which the 50% inhibitory concentration (IC50) in data set [1] was determined as 38.1 µM; in data set [3], 5.33 µM; in data set [4], 1.76 µM; in data set [5] it was 6.51 µM. Further, the CC50 at 24 h in data set [2] was over 50 µM.

As to `COc1ccccc1N1CCN(c2c(CO)c(=O)oc3ccccc23)CC1`, the 50% inhibitory concentration (IC50) is over 50 µM in data set [1], 18.3 µM in data set [3], 10.1 µM in data set [4] and 20 µM in data set [5]. The CC50 at 24 h in data set [2] is over 50 µM.

Regarding `O=c1oc2ccccc2c(N2CCN(c3ccccc3)CC2)c1CO`, the IC50 in data set [1] is over 50 µM; in data set [3], 16.6 µM; in data set [4], 8.93 µM; in data set [5], 17.2 µM. For the same compound, the CC50 at 24 h in data set [2] was over 50 µM.

Regarding `O=c1oc2ccccc2c(N2CCN(c3ccc(Cl)c(Cl)c3)CC2)c1CO`, the IC50 in data set [1] stood at 42.7 µM; in data set [3], 6.04 µM; in data set [4], 2.56 µM; in data set [5], 7.66 µM. Moreover, the CC50 at 24 h in data set [2] is over 50 µM.

As for `O=c1oc2ccccc2c(N2CCN(c3cccc(Cl)c3Cl)CC2)c1CO`, the IC50 stood at 45.9 µM in data set [1], 6.56 µM in data set [3], 3.27 µM in data set [4] and 8.45 µM in data set [5]. In addition, the cytotoxic concentration (CC50) at 24 h in data set [2] is over 50 µM.

As to `O=c1oc2ccccc2c(N2CCN(C(c3ccccc3)c3ccc(Cl)cc3)CC2)c1CO` (centres undefined), the IC50 was determined as 30.2 µM in data set [1], 2.74 µM in data set [3], 0.92 µM in data set [4] and 3.89 µM in data set [5]. For the same compound, in data set [2], the CC50 at 24 h is over 50 µM.

Regarding `CCCS(=O)(=O)Nc1ccc(F)c(C(=O)c2c[nH]c3ncc(-c4ccc(Cl)cc4)cc23)c1F` [VEMURAFENIB], the IC50 in data set [1] was determined as 1.86 µM; in data set [3] it was 0.07 µM; in data set [5], 0.21 µM. The 50% cytotoxic concentration (CC50) at 24 h in data set [2] was over 50 µM.

Consider `O=c1oc2ccccc2c(N2CCN(c3ccc(F)cc3)CC2)c1CO`, for which the IC50 was over 50 µM in data set [1], 23.4 µM in data set [3], 17.8 µM in data set [4] and 24.7 µM in data set [5]. In addition, in data set [2], the CC50 at 24 h was over 50 µM.

A word on the IC50: it is the concentration at which inhibition is half-maximal. A word on the CC50: it is the concentration giving 50% cytotoxicity.
